Read-outs that look alike come from different tables or passages of the source.

The values below come from patent EP4342467A1, “KU INHIBITORS FOR USE IN TUMOR THERAPY” (Masarykova Univerzita, priority 2022, dated 2024).

The subject of one experiment is HeLa. The experiment is described as follows: combination with BIBR1532, relative growth by ATPlite. It is filed as cell-based, human. The settings on record: 10 µM BIBR1532, 0.25 µM iKU-1 or their combination, 4 days. In general terms: ATP-based viability assays read luminescence as a measure of living cells.
A further experiment deals with U2OS. The experiment is described as above. It is filed as cell-based, human. Particulars: 10 µM BIBR1532, 0.25 µM iKU-1 or their combination, 4 days.
For another experiment, the system named is HCT116. Described as above. It is filed as cell-based, human. The settings on record: HCT116; 10 µM BIBR1532, 0.25 µM iKU-1 or their combination; 4 days. On the procedure:
10,000 HCT116 cells were seeded in 100 µl of McCoy's 5a medium supplemented with 10% Fetal Bovine Serum, 2 mM L-Glutamine and Penicilin/Streptomycin 200 U/l for 1 day in 96well plate and treated with 10 µM BIBR1532, 0.25 µM of iKU-1 or their combination for 4 days. Number of viable cells was measured by ATPlite kit (Perkin Elmer) and normalized to the treatment with 0.5% DMSO. The results presented in Table 2 show a synergistic effect of iKU-1 and BIBR1532 on the growth of HCT116 tumor cell line. Values in the table indicate relative growth assessed by ATPlite kit compared to the control sample treated with 0.5% DMSO after 4 days of treatment.

The next experiment has as its target Ku complex (Homo sapiens, UniProt P12956+P13010). Kind of experiment: microwell protein induced fluorescent enhancement assay (mwPIFE) of Ku-DNA binding. The settings on record: for remaining activity at 8 µM: read-out: % binding at 8 µM (100% = 0.5% DMSO); for IC50: estimated from the 0.5 to 8 µM concentration range, read-out: Inhibition of Ku-DNA binding IC50. On the procedure: A rapid method for detecting protein-nucleic acid interactions by protein induced fluorescence enhancement. Sci Rep 6, 39653. mwPIFE is based on enhanced fluorescence of cyanine fluorophores attached to nucleic acid probes upon protein binding. […] The probe was immobilized in 96 well plates through biotin (Btn) attached to one end of DNA and incubated with purified Ku complex (0.5 pmol) in 50 µl of binding buffer (10 mM calcium acetate, 60 mM potassium acetate, 20 mM TRISacetate pH 7.9, 100 mg BSA/1). Ku-DNA binding was calculated from altered fluorescence measured by a fluorescence plate reader (Valuchova et al., 2016). […]

The test system of experiment [1] is HCT116 cells. The experiment is described as follows: cell proliferation, ATPlite assay. It is filed as cell-based. Particulars: Homo sapiens, HCT-116, 120 h, read-out: Inhibition of cell proliferation IC50. On the procedure: HCT116, U2OS and HeLa cells were grown in McCoy's 5a medium supplemented with 10% Fetal Bovine Serum, 2 mM L-Glutamine and Penicilin/Streptomycin 200 U/l each in the presence of Compound 1-9. After growth at 37 °C, 5% CO2 for 3 days, monolayer of cells was detached using TrypLE Express (Gibco), cells were counted using 0.4% trypan blue stain and hemocytometer. […] Number of viable cells was estimated using ATPlite kit (Perkin Elmer).

Experiment [2] deals with HCT116 cells. The experiment is described as follows: C-circle assay (extrachromosomal circular telomeric DNA). It is filed as cell-based, human. Particulars: C-circle assay in HCT116 cells treated for 3 to 7 days. On the procedure: HCT116 cell were incubated for 3, 5 or 7 days in McCoy's 5a medium with 10% Fetal Bovine Serum, 2 mM L-Glutamine and Penicilin/Streptomycin 200 U/l each and supplemented with Compound 1-9. C-circle assay that utilizes rolling circle amplification of circular DNA by φ29 polymerase was performed as described in Henson, J.D., Lau, L.M., Koch, S., Martin La Rotta, N., Dagg, R.A., and Reddel, R.R. (2017). The C-Circle Assay for alternative-lengthening-of-telomeres activity. Methods 114, 74-84. Amplified circular telomeric DNA was detected by dot blot hybridization with P^32-labeled telomeric DNA oligonucleotide (5'-[…]-3' (SEQ ID NO: 6)) (Figure 4).

For experiment [3] the following is noted: literature (Weterings et al. 2016); cited from earlier work.
A further experiment deals with A2780. Kind of experiment: growth of A2780 cells by ATPlite, alone and in combination with Bleomycin. It is filed as cell-based, human. Particulars: A2780; 0.025 µg/ml Bleomycin, 0.5 µM iKU-1 or their combination; 7 days. On the procedure:
2,000 A2780 cells were seeded in 100 µl of RPMI 1640 medium with 300 mg/l L-Glutamine and 10% Fetal Bovine Serum for 1 day in 96well plate and treated by 0.025 µg/ml of Bleomycin, 0.5 µM of iKu-1 or their combination for 7 days. Number of viable cells was measured by ATPlite kit (Perkin Elmer) and normalized to the treatment with 0.5% DMSO.
Values in the table indicate relative growth assessed by ATPlite kit compared to the control sample treated with 0.5% DMSO after 7 days of treatment.
2,000 SKOV3 and A2780 cells were seeded in 100 µl of McCoy's 5a or RPMI 1640 media, respectively, for one day and then incubated with iKU-1 for 7 days. Number of viable cells was measured by ATPlite kit (Perkin Elmer) and normalized to the treatment with 0.5% DMSO.

Where [4] appears, read: mwPIFE, 8 µM inhibitor compared to 0.5% DMSO.
The mark [5] stands for this setting: ATPlite assay in HCT116 cells treated for 5 days.

Chain of Ku complex (P12956 whole entry): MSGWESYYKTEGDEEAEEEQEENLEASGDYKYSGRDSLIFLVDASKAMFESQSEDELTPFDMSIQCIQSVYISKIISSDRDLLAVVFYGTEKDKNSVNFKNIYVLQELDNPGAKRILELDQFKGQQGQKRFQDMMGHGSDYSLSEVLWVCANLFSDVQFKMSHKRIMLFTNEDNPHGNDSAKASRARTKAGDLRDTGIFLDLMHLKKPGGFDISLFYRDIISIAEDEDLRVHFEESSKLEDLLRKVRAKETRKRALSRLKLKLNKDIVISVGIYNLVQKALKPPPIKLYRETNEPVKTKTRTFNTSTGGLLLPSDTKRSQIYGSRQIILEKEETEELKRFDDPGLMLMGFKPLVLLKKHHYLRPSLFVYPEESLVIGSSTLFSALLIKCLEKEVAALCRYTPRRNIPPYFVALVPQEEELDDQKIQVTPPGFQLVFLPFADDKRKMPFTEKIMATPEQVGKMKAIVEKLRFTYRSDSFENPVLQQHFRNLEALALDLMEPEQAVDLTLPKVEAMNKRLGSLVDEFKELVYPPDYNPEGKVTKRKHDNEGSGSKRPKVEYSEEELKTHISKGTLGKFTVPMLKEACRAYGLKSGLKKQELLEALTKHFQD
Chain of Ku complex (P13010 whole entry): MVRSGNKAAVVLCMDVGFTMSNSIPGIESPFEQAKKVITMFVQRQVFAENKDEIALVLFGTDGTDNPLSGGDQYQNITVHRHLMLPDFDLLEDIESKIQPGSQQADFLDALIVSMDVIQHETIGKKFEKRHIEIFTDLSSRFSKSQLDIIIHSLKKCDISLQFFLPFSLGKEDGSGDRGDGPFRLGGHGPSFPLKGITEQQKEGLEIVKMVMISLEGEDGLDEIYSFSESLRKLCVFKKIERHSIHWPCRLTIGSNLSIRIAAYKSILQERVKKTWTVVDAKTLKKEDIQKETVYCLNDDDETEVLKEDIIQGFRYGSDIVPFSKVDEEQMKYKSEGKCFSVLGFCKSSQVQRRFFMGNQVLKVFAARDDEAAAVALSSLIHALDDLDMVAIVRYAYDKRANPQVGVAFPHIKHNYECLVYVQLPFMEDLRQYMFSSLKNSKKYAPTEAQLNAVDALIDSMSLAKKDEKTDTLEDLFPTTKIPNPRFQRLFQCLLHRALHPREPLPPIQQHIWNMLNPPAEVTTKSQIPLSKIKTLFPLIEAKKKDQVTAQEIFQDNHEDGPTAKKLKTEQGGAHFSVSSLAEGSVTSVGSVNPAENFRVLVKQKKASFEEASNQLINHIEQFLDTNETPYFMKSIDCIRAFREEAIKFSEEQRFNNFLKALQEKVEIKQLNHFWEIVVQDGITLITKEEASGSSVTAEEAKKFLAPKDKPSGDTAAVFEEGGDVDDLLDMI

In the case of `C/C(=C\C(=O)Nc1ccccc1C(=O)O)c1ccc2ccccc2c1` [BIBR1532, reference compound], the “relative growth assessed by ATPlite kit compared to the control sample treated with 0.5% DMSO” value in the experiment on HeLa was 0.92; with U2OS it was 0.88; in the experiment with HCT116, 0.88.
Consider `O=C(Nc1nc(-c2ccccn2)cs1)c1cccnc1` [Compound 2], for which, on Ku complex (setting [4]), the remaining activity at 8 µM was 97%. Further, in the experiment with HCT116 cells [1] (setting [5]), the IC50 was below 5 µM. Further, in the experiment with HCT116 cells [2], the “Concentration inducing c-circle formation” value stood at 5 µM.
On to `O=C(Nc1nc(-c2ccccn2)cs1)c1cccc(Br)c1` [Compound 3], for which the remaining activity at 8 µM at Ku complex (setting [4]) was 76%. For the same molecule, in the experiment with HCT116 cells [1] (setting [5]), the IC50 is below 5 µM.
With `O=C(Nc1nc(-c2ccccn2)cs1)c1ccc(NC2CC2)nc1` [Compound 4], the IC50 on Ku complex (mwPIFE) was 7 µM; in the experiment with HCT116 cells [1], 8 µM. For the same molecule, on Ku complex, the remaining activity at 8 µM worked out at 47%. For the same molecule, the “Concentration inducing c-circle formation” value with HCT116 cells [2] turned out to be 10 µM.
Consider `CC(=O)NCCc1ccc(-c2csc(NC(=O)c3cncc(Br)c3)n2)cc1` [Compound 5], for which the IC50 on Ku complex (mwPIFE) was above 8 µM; in the experiment on HCT116 cells [1], below 5 µM. Besides, the remaining activity at 8 µM at Ku complex was determined as 75%.
For the molecule `CC(=O)Nc1ccc(-c2csc(NC(=O)c3cncc(Br)c3)n2)cc1` [Compound 6], the IC50 was above 8 µM on Ku complex (mwPIFE) and 20 µM in the experiment with HCT116 cells [1]. Moreover, the remaining activity at 8 µM on Ku complex was 55%.
On to `O=C(Nc1nc(-c2cccnc2)cs1)c1cncc(Br)c1` [Compound 7], for which the values for the IC50 on Ku complex (mwPIFE) and in the experiment on HCT116 cells [1] were above 8 µM and above 20 µM, respectively. Moreover, the remaining activity at 8 µM on Ku complex was 55%. Further, in the experiment on HCT116 cells [2], the “Concentration inducing c-circle formation” value was 50 µM.
With `O=C(Nc1nc(-c2ccccc2)cs1)c1cncc(Br)c1` [Compound 8], the results for the IC50 at Ku complex (mwPIFE) and with HCT116 cells [1] were above 8 µM and above 20 µM, respectively. At Ku complex, the remaining activity at 8 µM is 71%. Also, in the experiment on HCT116 cells [2], the “Concentration inducing c-circle formation” value is recorded as 50 µM.
As to `Cc1ccc(C(=O)Nc2nc(-c3ccccc3)cs2)cc1` [Compound 9], at Ku complex (setting [4]), the remaining activity at 8 µM stood at 99%. Also, the IC50 was above 8 µM at Ku complex (mwPIFE) and 9 µM with HCT116 cells [1] (setting [5]). For the same molecule, the “Concentration inducing c-circle formation” value in the experiment on HCT116 cells [2] was determined as 20 µM.
Turning to `COc1ccc(CCNc2ncc3c(=O)n(-c4cccc(F)c4)c(=O)[nH]c3n2)cc1OC` [STL127705], in experiment [3], the “concentration conferring enhanced sensitivity to irradiation” value was 20 to 30 µM.
Bleomycin [reference compound]: the “relative growth assessed by ATPlite kit compared to the control sample treated with 0.5% DMSO” value with A2780 stood at 1.00.
